# In US20250073198A1, “COMPOUNDS AND USE THEREOF FOR THE TREATMENT OF DISEASES ASSOCIATED WITH IMPAIRED ß-GALACTOSIDASE ACTIVITY” (DORPHAN SA, priority 2022, published 2025):
# How the values were obtained:
# [1] = including pediatric patients; cited from earlier work
# [2] = prior art statement; cited from earlier work
# cathepsin B = target: T1, cathepsin B (Sus scrofa, UniProt A1E295); test: In-vitro enzymatic activity assay on isolated cathepsin B (pork liver homogenate, Z-FR-AMC substrate); type: biochemical; details: for IC50: ester prodrug hydrolysed with NaOH to the free acid, 1 hour at 37° C., pH 6.0, read-out: IC50, inhibition of cathepsin B (catB) activity in pork liver homogenate; for inhibitory activity against isolated catB, compared to E64c: pork liver homogenate, result in words
# T1 construct: from tissue; host or cells: pork liver homogenate
# Method: The ability of the compounds VRO006_hydrol, VRO047_hydrol, VRO052_hydrol, VRO059_hydrol, VRO073_hydrol, VRO109_hydrol, VRO244_hydrol, VRO001_hydrol, VRO082_hydrol, VRO035_hydrol, VRO119_hydrol, and VRO243_hydrol to inhibit isolated cathepsin B was assessed in an enzymatic assay and compared to the inhibitory activity of the prior art E64c. In this assay, the compounds VRO006, VRO042, VRO047, VRO052, VRO059, VRO073, VRO109, VRO244, VRO001, VRO082, VRO035, VRO119, and VRO243 were used and the assay was performed in the presence of NaOH, in order to simulate the ester cleavage that occurs within the gastrointestinal tract, and to release the free acid (VROxxx_hydrol compound) from the prodrug (corresponding VROxxx compound). The chemical structures of compounds […], VRO042, VRO047, VRO052, VRO059, VRO073, […] and VRO244 and their chemical names are provided in [Table 2] above. The structures of VRO001, VRO082, VRO035, VRO119 and VRO243 are provided in [Table 3] below. The cathepsin B was from pork liver homogenate.
# The enzymatic assay was performed as follows. Samples of homogenized pork liver (75 mg of fresh tissue per sample) were incubated for 1 hour at 37° C. with Z—FR-AMC (benzyloxycarbonyl-L-[…]-4-methylcoumaryl-7-amide) at […] in 1 M sodium acetate pH 6.0, supplemented with 2.5 mM EDTA, 2.5 mM DTT and 0.1% Triton X-100, and graded concentrations of test substances (between 0.1 nM and […]). The stock solutions of test substances were at 20 mM in DMSO. Fluorescence was determined at 445 nm using 365 nm as the excitation wavelength.
SMILES,toxicity for human in 3-year clinical trials [1],penetration of the blood-brain barrier [2],IC50 (cathepsin B),"inhibitory activity against isolated catB, compared to E64c (cathepsin B)"
CCOC(=O)[C@H]1O[C@@H]1C(=O)N[C@@H](CC(C)C)C(=O)NCCC(C)C [Compound E64d],non-toxicity for human,low penetration of the blood-brain barrier,–,–
CC(C)CCNC(=O)C(CC(C)C)N(C)C(=O)C1OC1C(=O)O (stereo not shown) [VRO001_hydrol],–,–,> 100 nM,unable to inhibit catB
"CCOC(=O)[C@H]1O[C@@H]1C(=O)N[C@@H](CC(C)C)C(=O)N(C)CCC(C)C [VRO006, Ethyl (2S,3S)-3-(((S)-1-(isopentyl(methyl)amino)-4-methyl-1-oxopentan-2-yl)carbamoyl)oxirane-2-carboxylate]",–,–,–,quite similar to the one of E64c
"CC(C)CCN(C)C(=O)[C@H](CC(C)C)NC(=O)[C@H]1O[C@@H]1C(=O)O [VRO006_hydrol, (2S,3S)-3-(((S)-1-(isopentyl(methyl)amino)-4-methyl-1-oxopentan-2-yl)carbamoyl)oxirane-2-carboxylic acid]",–,–,≤ 100 nM,–
CC(C)CC(NC(=O)C1OC1C(=O)O)C(=O)NCCC(F)(F)F (stereo not shown) [VRO035_hydrol],–,–,> 100 nM,inhibitory activity was lost
"COCCCNC(=O)[C@H](CC(C)C)NC(=O)[C@H]1O[C@@H]1C(=O)O [VRO042_hydrol, (2S,3S)-3-(((S)-1-((3-3-methoxypropyl)amino)-4-methyl-1-oxopentan-2-yl)carbamoyl)oxirane-2-carboxylic acid]",–,–,≤ 100 nM,maintaining efficient inhibition of catB
"COCCNC(=O)[C@H](CC(C)C)NC(=O)[C@H]1O[C@@H]1C(=O)O [VRO047_hydrol, (2S,3S)-3-(((S)-1-((2-2-methoxyethyl)amino)-4-methyl-1-oxopentan-2-yl)carbamoyl)oxirane-2-carboxylic acid]",–,–,≤ 100 nM,almost the same activity as E64c
"CC(C)C[C@H](NC(=O)[C@H]1O[C@@H]1C(=O)O)C(=O)NCCc1ccccn1 [VRO052_hydrol, (2S,3S)-3-(((S)-4-methyl-1-oxo-1-((2-(pyridin-2-yl)ethyl)amino)pentan-2-yl)carbamoyl)oxirane-2-carboxylic acid]",–,–,≤ 100 nM,only slightly reduced
"CC(C)C[C@H](NC(=O)[C@H]1O[C@@H]1C(=O)O)C(=O)NCCCN1CCCCC1 [VRO059_hydrol, (2S,3S)-3-(((S)-4-methyl-1-oxo-1-((3-(piperidin-1-yl)propyl)amino)pentan-2-yl)carbamoyl)oxirane-2-carboxylic acid]",–,–,≤ 100 nM,almost similar to E64c
"CC(C)C[C@H](NC(=O)[C@H]1O[C@@H]1C(=O)O)C(=O)NCc1ccccc1F [VRO073_hydrol, (2S,3S)-3-(((S)-1-((2-fluorobenzyl)amino)-4-methyl-1-oxopentan-2-yl)carbamoyl)oxirane-2-carboxylic acid]",–,–,≤ 100 nM,only slightly reduced
COCC(NC(=O)C1OC1C(=O)O)C(=O)NCCC(C)C (stereo not shown) [VRO082_hydrol],–,–,> 100 nM,did not allow to maintain the inhibitory activity
"CC(C)CCNC(=O)[C@H](CC(F)(F)F)NC(=O)[C@H]1O[C@@H]1C(=O)O [VRO109_hydrol, (2S,3S)-3-(((S)-4,4,4-trifluoro-1-(isopentylamino)-1-oxobutan-2-yl)carbamoyl)oxirane-2-carboxylic acid]",–,–,≤ 100 nM,increased compared to E64c
CC(C)CCNC(=O)C(Cc1ccccn1)NC(=O)C1OC1C(=O)O (stereo not shown) [VRO119_hydrol],–,–,> 100 nM,not tolerated
CC(C)CCN(C)C(=O)C(CC(F)(F)F)NC(=O)C1OC1C(=O)O (stereo not shown) [VRO243_hydrol],–,–,> 100 nM,drastic loss of activity
"O=C(NCc1ccccc1F)[C@H](CC(F)(F)F)NC(=O)[C@H]1O[C@@H]1C(=O)O [VRO244_hydrol, (2S,3S)-3-(((S)-4,4,4-trifluoro-1-((2-fluorobenzyl)amino)-1-oxobutan-2-yl)carbamoyl)oxirane-2-carboxylic acid]",–,–,≤ 100 nM,only slightly lower than the prior art E64c
